Experimental data published in patent US4374773A, “Triazolo-benzodiazepine derivatives” (Hoffmann-La Roche Inc., priority 1980, dated 1983).

Tests used:
[1] = test system: aldosterone; test: aldosterone-antagonistic properties in adrenalectomised rats (urine volume, sodium and potassium excretion); format: in vivo, Female Holtzmann rats; details: aldosterone s.c. 30 min later, urine collected 3 hours, control = aldosterone only
Experimental: If compounds of formula I are administered to the animals before the treatment with aldosterone, then there is observed, in comparison with animals which are treated only with aldosterone (control animals), a pronounced increase of the sodium excretion (i.e. the sodium retention caused by aldosterone is antagonised), whereas the potassium excretion and the urine volume are influenced to a lesser extent.
The standard experiment is carried out as follows:
Female Holtzmann rats (150-180 g) are bilaterally adrenalectomised 70 to 74 hours before the beginning of the experiment. After the operation, the animals receive a customary rat dry feed and 0.9 percent sodium chloride solution for drinking. 16 to 17 hours before the beginning of the experiment the feed is removed from the animals, but they can subsequently drink, as before, 0.9 percent sodium chloride solution ad libitum. At the beginning of the experiment the substance to be tested as an aldosterone-antagonist is administered to the animals by means of a stomach probe. 30 minutes later the animals receive a subcutaneous injection of 4 mmg/kg of aldosterone. After a further 90 minutes, the urinary bladders of the animals are emptied by careful suprapubic pressure, whereupon the animals are placed individually in metabolic cages without food and without drink. The urine of the animals is then collected for 3 hours, whereupon their urinary bladders are once more emptied. The spontaneously excreted urine and the remaining urine obtained at the conclusion of the experiment by pressing-out the urinary bladders are collected in graduated centrifuge glasses. Sodium and potassium concentrations in the urine are determined with a flame photometer.
(§1) The following Table contains results which have been obtained in the previously described experiment with representative compounds of formula I. In this Table there are given for each compound in question the dosage administered (in mg/kg p.o.) as well as the percentage variation in the urine volume, the sodium excretion and the potassium excretion in comparison with the control animals (i.e. in comparison with the animals treated only with aldosterone). Moreover, the Table contains data relating to the acute toxicity of the compounds investigated (LD 50 in mg/kg in the case of single oral administration to mice).

[2] = acute toxicity, single oral administration to mice; details: mouse, in vivo
Source text: as §1

[3] = test system: aldosterone; test: aldosterone-antagonistic properties in adrenalectomised rats (urine volume, sodium and potassium excretion); format: in vivo, Female Holtzmann rats; details: compared with untreated animals

Structure (SMILES)	potassium excretion [K+] in %, based on control animals ([1]; 1 mg/kg p.o.) [%]	sodium excretion [Na+] in %, based on control animals ([1]; 1 mg/kg p.o.) [%]	urine volume in %, based on control animals ([1]; 1 mg/kg p.o.) [%]	LD50 [2] [mg/kg]	potassium excretion [K+] in %, based on control animals ([1]; 10 mg/kg p.o.) [%]	sodium excretion [Na+] in %, based on control animals ([1]; 10 mg/kg p.o.) [%]	urine volume in %, based on control animals ([1]; 10 mg/kg p.o.) [%]	excreted urine volume, effect of aldosterone [3]	potassium excretion, effect of aldosterone [3]	sodium excretion, effect of aldosterone [3]
CC1(C)N=C(c2ccccc2Cl)c2cc(NC(=O)N3CCCC3)ccc2-n2cnnc21 [Example 13, N-[6-(o-chlorophenyl)-4,4-dimethyl-4H-s-triazolo[4,3-a][1,4]benzodiazepin-8-yl]-1-pyrrolidinecarboxamide]	72	155	97	> 5000	–	–	–	–	–	–
Cc1nnc2n1-c1ccc(NC(=O)NCCO)cc1C(c1ccccc1Cl)=NC2(C)C [Example 12, 1-[6-(o-chlorophenyl)-1,4,4-trimethyl-4H-s-triazolo[4,3-a][1,4]benzodiazepin-8-yl]-3-(2-hydroxyethyl)urea]	75	215	75	> 5000	–	–	–	–	–	–
CN(C)C(=O)Nc1ccc2c(c1)C(c1ccccc1Cl)=NCc1nncn1-2 [Example 8, 3-[6-(o-chlorophenyl)-4H-s-triazolo[4,3-a][1,4]benzodiazepin-8-yl]-1,1-dimethylurea]	–	–	–	> 5000	100	252	131	–	–	–
Cc1nnc2n1-c1ccc(NC(=O)N(C)C)cc1C(c1ccccc1Cl)=NC2 [Example 10, 3-[6-(o-chlorophenyl)-1-methyl-4H-s-triazolo[4,3-a][1,4]-benzodiazepin-8-yl]-1,1-dimethylurea]	–	–	–	> 5000	112	252	103	–	–	–
Cc1nnc2n1-c1ccc(NC(=O)NCCO)cc1C(c1ccccc1F)=NC2(C)C [Example 4, 1-[6-(o-fluorophenyl)-1,4,4-trimethyl-4H-s-triazolo[4,3-a][1,4]benzodiazepin-8-yl]-3-(2-hydroxyethyl)urea]	90	256	112	> 5000	–	–	–	–	–	–
CN(C)C(=O)Nc1ccc2c(c1)C(c1ccccc1F)=NC(C)(C)c1nncn1-2 [Example 5, 3-[6-(o-fluorophenyl)-4,4-dimethyl-4H-s-triazolo[4,3-a][1,4]benzodiazepin-8-yl]-1,1-dimethylurea]	65	238	106	> 5000	–	–	–	–	–	–
C[C@]12CCC(=O)C=C1CC[C@@H]1[C@@H]2[C@@H](O)C[C@]2(C=O)[C@@H](C(=O)CO)CC[C@@H]12 [aldosterone]	–	–	–	–	–	–	–	reduction of the excreted urine volume	increased potassium excretion	pronounced reduction of the sodium excretion
